Experimental data reported in US8846653B2, “Delta-tocotrienol treatment and prevention of pancreatic cancer” (University of South Florida, priority 2006, dated 2014).

Legend:
Assay type in all cases: cell-based, human
[1] = tested on: SW1990 pancreatic cancer cells; experiment: MTS assay of SW1990 cultures, single 50 μM dose; details: SW1990, 50 μM
In short: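 SW1990 cells were grown in DMEM with 10% FBS at 37 °C, 5% CO2. They were given one 50 μM dose of a tocotrienol, tocopherol, tocopherol succinate, geranylgeraniol or succinic acid, in an olive-oil-extract vehicle. MTS viability was read at 24, 48 or 72 h and compared with vehicle-only cultures.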

BXPC3 cells = experiment: MTT assay of BXPC3 cultures, single 50 μM dose; parameters: MTT assay result, run 1 / MTT assay result, run 2 / MTT assay result, run 3 / MTT assay result, run 4 / MTT assay result, run 5 / MTT assay result, run 6 / MTT assay result, run 7 / MTT assay result, av (average) / MTT assay result, av-blank / MTT assay result, av: unit not given here; details: BXPC3, 50 μM; for MTT assay result, av-blank: average minus blank
In short: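 BXPC3 cells in 10% FBS medium at 37° C, 5% CO2, given a single 50 μM dose of tocotrienols, tocopherols, tocopherol succinate, geranylgeraniol, succinic acid or vehicle, alongside untreated control. Viability read by MTT at 48 or 120 hours.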

MiaPaCa-2 cells = experiment: MTS assay of MiaPaCa2 cultures, single 50 μM dose; details: MiaPaCa2, 50 μM
In short: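 MiaPaCa-2 pancreatic cancer cells were grown in complete DMEM with 10% fetal bovine serum, 1% penicillin-streptomycin and 1% L-glutamine, kept at 37° C. in a humidified 5% CO2 incubator. They received a single 50 μM dose of test agent or vehicle alongside an untreated control culture, and viability was assessed by MTS assay.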

Cc1c(O)cc2c(c1C)O[C@](C)(CCC[C@H](C)CCC[C@H](C)CCCC(C)C)CC2 [T gamma]
rel amnt (relative value set to the control) ([1]; 24 hours): 116
MTS assay result, run 1 ([1]; 24 hours): 0.175
MTS assay result, run 2 ([1]; 24 hours): 0.165
MTS assay result, run 3 ([1]; 24 hours): 0.167
MTS assay result, run 4 ([1]; 24 hours): 0.154
MTS assay result, run 5 ([1]; 24 hours): 0.198
MTS assay result, run 6 ([1]; 24 hours): 0.168
MTS assay result, run 7 ([1]; 24 hours): 0.178
MTS assay result, run 8 ([1]; 24 hours): 0.16
MTS assay result, run 9 ([1]; 24 hours): 0.171
rel amnt (relative value set to the control) ([1]; 48 hours): 94
MTS assay result, run 1 ([1]; 48 hours): 0.131
MTS assay result, run 2 ([1]; 48 hours): 0.133
MTS assay result, run 3 ([1]; 48 hours): 0.14
MTS assay result, run 4 ([1]; 48 hours): 0.141
MTS assay result, run 5 ([1]; 48 hours): 0.142
MTS assay result, run 6 ([1]; 48 hours): 0.122
MTS assay result, run 7 ([1]; 48 hours): 0.16
MTS assay result, run 8 ([1]; 48 hours): 0.164
MTS assay result, run 9 ([1]; 48 hours): 0.142
rel amnt (relative value set to the control) ([1]; 72 hours): 108
MTS assay result, run 1 ([1]; 72 hours): 0.5
MTS assay result, run 2 ([1]; 72 hours): 0.497
MTS assay result, run 3 ([1]; 72 hours): 0.46
MTS assay result, run 4 ([1]; 72 hours): 0.505
MTS assay result, run 5 ([1]; 72 hours): 0.515
MTS assay result, run 6 ([1]; 72 hours): 0.469
MTS assay result, run 7 ([1]; 72 hours): 0.43
MTS assay result, run 8 ([1]; 72 hours): 0.451
MTS assay result, run 9 ([1]; 72 hours): 0.478
rel amt (relative value set to the control) (BXPC3 cells; 48 hours): 115
MTT assay result, av-blank (BXPC3 cells; 48 hours): 0.262
MTT assay result, av (average) (BXPC3 cells; 48 hours, average of 7 runs): 0.311
MTT assay result, run 1 (BXPC3 cells; 48 hours): 0.32
MTT assay result, run 2 (BXPC3 cells; 48 hours): 0.356
MTT assay result, run 3 (BXPC3 cells; 48 hours): 0.335
MTT assay result, run 4 (BXPC3 cells; 48 hours): 0.304
MTT assay result, run 5 (BXPC3 cells; 48 hours): 0.277
MTT assay result, run 6 (BXPC3 cells; 48 hours): 0.28
MTT assay result, run 7 (BXPC3 cells; 48 hours): 0.306
rel amt (relative value set to the control) (BXPC3 cells; 120 hours (5 days)): 103
MTT assay result, av-blank (BXPC3 cells; 120 hours (5 days)): 0.595
MTT assay result, av (BXPC3 cells; 120 hours (5 days), average of 7 runs): 0.650
MTT assay result, run 1 (BXPC3 cells; 120 hours (5 days)): 0.628
MTT assay result, run 2 (BXPC3 cells; 120 hours (5 days)): 0.66
MTT assay result, run 3 (BXPC3 cells; 120 hours (5 days)): 0.653
MTT assay result, run 4 (BXPC3 cells; 120 hours (5 days)): 0.649
MTT assay result, run 5 (BXPC3 cells; 120 hours (5 days)): 0.682
MTT assay result, run 6 (BXPC3 cells; 120 hours (5 days)): 0.615
MTT assay result, run 7 (BXPC3 cells; 120 hours (5 days)): 0.661
rel amt (relative value set to the control) (MiaPaCa-2 cells; 24 hours): 121
MTS assay result, run 1 (MiaPaCa-2 cells; 24 hours): 0.273
MTS assay result, run 2 (MiaPaCa-2 cells; 24 hours): 0.261
MTS assay result, run 3 (MiaPaCa-2 cells; 24 hours): 0.268
MTS assay result, run 4 (MiaPaCa-2 cells; 24 hours): 0.219
MTS assay result, run 5 (MiaPaCa-2 cells; 24 hours): 0.264
MTS assay result, run 6 (MiaPaCa-2 cells; 24 hours): 0.31
MTS assay result, run 7 (MiaPaCa-2 cells; 24 hours): 0.295
MTS assay result, run 8 (MiaPaCa-2 cells; 24 hours): 0.263
MTS assay result, run 9 (MiaPaCa-2 cells; 24 hours): 0.269
rel amt (relative value set to the control) (MiaPaCa-2 cells; 48 hours): 81
MTS assay result, run 1 (MiaPaCa-2 cells; 48 hours): 0.329
MTS assay result, run 2 (MiaPaCa-2 cells; 48 hours): 0.265
MTS assay result, run 3 (MiaPaCa-2 cells; 48 hours): 0.304
MTS assay result, run 4 (MiaPaCa-2 cells; 48 hours): 0.25
MTS assay result, run 5 (MiaPaCa-2 cells; 48 hours): 0.289
MTS assay result, run 6 (MiaPaCa-2 cells; 48 hours): 0.341
MTS assay result, run 7 (MiaPaCa-2 cells; 48 hours): 0.301
MTS assay result, run 8 (MiaPaCa-2 cells; 48 hours): 0.279
MTS assay result, run 9 (MiaPaCa-2 cells; 48 hours): 0.295
rel amt (relative value set to the control) (MiaPaCa-2 cells; 72 hours): 108
MTS assay result, run 1 (MiaPaCa-2 cells; 72 hours): 0.5
MTS assay result, run 2 (MiaPaCa-2 cells; 72 hours): 0.497
MTS assay result, run 3 (MiaPaCa-2 cells; 72 hours): 0.46
MTS assay result, run 4 (MiaPaCa-2 cells; 72 hours): 0.505
MTS assay result, run 5 (MiaPaCa-2 cells; 72 hours): 0.515
MTS assay result, run 6 (MiaPaCa-2 cells; 72 hours): 0.469
MTS assay result, run 7 (MiaPaCa-2 cells; 72 hours): 0.429
MTS assay result, run 8 (MiaPaCa-2 cells; 72 hours): 0.451
MTS assay result, run 9 (MiaPaCa-2 cells; 72 hours): 0.478
